Measured values taken from patent US20070254931A1, “Thiazole Derivatives Having Vap-1 Inhibitory Activity” (Astellas Pharma Inc., priority 2004, published 2007).
Where a name gives a salt, the structure may show the parent alone.

Molecular target: T1, Human plasma SSAO (Homo sapiens, UniProt Q16853)
T1 construct: The enzyme suspension prepared from blood plasma was pre-incubated with a control compound; from tissue; host or cells: human blood plasma
T1 sequence (Q16853 27-763 limits assumed): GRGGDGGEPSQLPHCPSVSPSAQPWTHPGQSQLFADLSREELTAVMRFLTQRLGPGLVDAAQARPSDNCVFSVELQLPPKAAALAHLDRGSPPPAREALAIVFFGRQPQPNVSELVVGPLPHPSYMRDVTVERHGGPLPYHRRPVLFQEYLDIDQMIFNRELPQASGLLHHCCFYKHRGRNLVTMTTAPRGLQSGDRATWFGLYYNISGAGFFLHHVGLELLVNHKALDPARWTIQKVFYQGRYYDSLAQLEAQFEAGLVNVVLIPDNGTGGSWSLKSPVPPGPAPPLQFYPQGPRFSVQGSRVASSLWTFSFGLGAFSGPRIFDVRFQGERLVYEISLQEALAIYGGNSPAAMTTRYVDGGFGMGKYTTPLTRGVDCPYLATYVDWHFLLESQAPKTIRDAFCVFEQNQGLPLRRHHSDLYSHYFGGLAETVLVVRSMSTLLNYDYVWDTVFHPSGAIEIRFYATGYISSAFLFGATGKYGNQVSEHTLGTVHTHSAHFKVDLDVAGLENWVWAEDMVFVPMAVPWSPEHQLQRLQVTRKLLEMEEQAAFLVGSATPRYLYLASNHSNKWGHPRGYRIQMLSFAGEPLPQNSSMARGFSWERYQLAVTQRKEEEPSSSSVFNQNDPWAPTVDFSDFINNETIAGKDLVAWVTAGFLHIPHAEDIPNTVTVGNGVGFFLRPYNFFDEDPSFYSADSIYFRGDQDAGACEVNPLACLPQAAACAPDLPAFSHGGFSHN
Assay: VAP-1 enzyme (SSAO) activity in human plasma, radiochemical-enzyme assay with 14C-benzylamine
Format: biochemical
Settings: human plasma enzyme suspension; pre-incubation 30 min at room temperature; 14C-benzylamine 2×10^−5 mol/l, 37° C., 1 hour; read-out: Inhibitory effect (IC50 values, μM) Human plasma SSAO
Protocol: VAP-1 enzyme (SSAO) activity in human plasma was determined by a radiochemical-enzyme assay using ^14C-benzylamine as an artificial substrate. The enzyme suspension prepared from blood plasma was pre-incubated with a control compound (Reference Example 1) in 96-well microplate at room temperature for 30 min. The enzyme suspension was then incubated with ^14C-benzylamine (2×10^−5 mol/l final concentration) in a final volume of 50 μl at 37° C. for 1 hour. The enzyme reaction was terminated by adding 2 mol/l (50 μl) citric acid. The oxidized products were directly extracted into a 200 μl toluene scintillator, and its radioactivity was measured by a scintillation spectrometer. Inhibition activity was expressed as IC50 (μmol/l) value.
Test compounds (i.e., the present compounds) inhibited the enzyme activity of human plasma SSAO in comparison with the control compound as shown in Table 1.

| SMILES | IC50 |
| --- | --- |
| CC(=O)Nc1nc(CCc2ccc(CC(=O)NC(=N)N)cc2)cs1 [Production Example 9, 2-(4-{2-[2-(acetylamino)-1,3-thiazol-4-yl]ethyl}phenyl)-N-[amino(imino)methyl]acetamide] | 0.0026 µM |
| CC(=O)Nc1nc(-c2ccc(CCCCNC(=N)N)cc2)cs1 [Production Example 7, N-{4-[4-(4-{[amino(imino)methyl]amino}butyl)phenyl]-1,3-thiazol-2-yl}acetamide hydrochloride] | 0.015 µM |
| CC(=O)Nc1nc(CCc2ccc(NC(=N)N)cc2)c(CN(C)C(=O)c2ccc(S(C)(=O)=O)cc2)s1 [Production Example 16, N-({2-(acetylamino)-4-[2-(4-{[amino(imino)methyl]amino}phenyl)ethyl]-1,3-thiazol-5-yl}methyl)-N-methyl-4-(methylsulfonyl)benzamide hydrochloride] | 0.012 µM |
| CC(=O)Nc1nc(CCc2ccc(NC(=N)N)cc2)cs1 [Reference Example 1, N-{4-[2-(4-{[amino(imino)methyl]amino}phenyl)ethyl]-1,3-thiazol-2-yl}acetamide, reference compound] | 0.033 µM |
| CC(=O)Nc1nc(CCc2ccc(NC(=N)N)cc2)c(Cc2cccc(S(C)(=O)=O)c2)s1 [Production Example 1, N-{4-[2-(4-{[amino(imino)methyl]amino}phenyl)ethyl]-5-[3-(methylsulfonyl)benzyl]-1,3-thiazol-2-yl}acetamide] | 0.016 µM |
| CC(=O)Nc1nc(CCc2ccc(NC(=N)N)cc2)c(Cc2ccc(S(N)(=O)=O)cc2)s1 [Production Example 3, N-{4-[2-(4-{[amino(imino)methyl]amino}phenyl)ethyl]-5-[4-(aminosulfonyl)benzyl]-1,3-thiazol-2-yl}acetamide hydrochloride] | 0.0045 µM |

Further lines, results first:

| IC50 | SMILES |
| --- | --- |
| 0.032 µM | CC(=O)Nc1nc(CCc2ccc(NC(=N)N)cc2)c(CN(C)C(=O)c2ccc([N+](=O)[O-])cc2)s1 [Production Example 19, N-({2-(acetylamino)-4-[2-(4-{[amino(imino)methyl]amino}phenyl)ethyl]-1,3-thiazol-5-yl}methyl)-N-methyl-4-nitrobenzamide hydrochloride] |
| 0.019 µM | CC(=O)Nc1nc(CCc2ccc(NC(=N)N)cc2)c(CN2CC[C@@H](C(=O)N(C)C)C2)s1 [Production Example 12, (3R)-1-({2-(acetylamino)-4-[2-(4-{[amino(imino)methyl]amino}phenyl)ethyl]-1,3-thiazol-5-yl}methyl)-N,N-dimethyl-3-pyrrolidinecarboxamide dihydrochloride] |
| 0.014 µM | CC(=O)Nc1nc(CCc2ccc(NC(=N)N)cc2)c(CN2CC[C@H](C(=O)N(C)C)C2)s1 [Production Example 14, (3S)-1-({2-(acetylamino)-4-[2-(4-{[amino(imino)methyl]amino}phenyl)ethyl]-1,3-thiazol-5-yl}methyl)-N,N-dimethyl-3-pyrrolidinecarboxamide dihydrochloride] |
| 0.0057 µM | CC(=O)Nc1nc(CCc2ccc(CCNC(=N)N)cc2)cs1 [Production Example 25, N-(4-{2-[4-(2-{[amino(imino)methyl]amino}ethyl)phenyl]ethyl}-1,3-thiazol-2-yl)acetamide] |

System: not given
Assay: not given
Settings: not given

| melting point | SMILES |
| --- | --- |
| 217 to 218.5 °C | CC(=O)Nc1nc(-c2ccc(CCNC(=N)N)cc2)c(Cc2ccc(S(C)(=O)=O)cc2)s1.Cl |
| 212 to 213.5 °C | CC(=O)Nc1nc(CCc2ccc(NC(=N)N)cc2)c(Cc2cccc(S(C)(=O)=O)c2)s1 [Production Example 1, N-{4-[2-(4-{[amino(imino)methyl]amino}phenyl)ethyl]-5-[3-(methylsulfonyl)benzyl]-1,3-thiazol-2-yl}acetamide] |
